Like-named read-outs stand apart in the source and are kept apart here.
Columns and labels:
[1] = known drug, background; cited from earlier work
[2] = known drug, background; cited from earlier work; remark: listed apart in the source
[3] = known drug, background; cited from earlier work; remark: listed apart in the source
[4] = pKa; format: physicochemical
[5] = moisture sensitivity; format: physicochemical
[6] = aqueous solubility; format: physicochemical
[7] = logP; format: physicochemical
[8] = logD (pH7.4); format: physicochemical

SMILES | logD (pH7.4) [1] | pKa [2] | logP [3] | pKa [4] | moisture sensitivity [5] | aqueous solubility ([6]; at about 37° C.) [µg/mL] | aqueous solubility of the free acid form ([6]; free acid form, pH 1.0-7.4) [µg/mL] | logP [7] | logD (pH7.4) [8]
CC(C(=O)O)c1cccc(C(=O)c2ccccc2)c1 (racemic) [Ketoprofen, (RS)-2-(3-benzoylphenyl)propanoic acid] | about 1.34 | about 5.94 | about 0.97 | – | – | – | – | – | –
COc1ccc2c(c1)c(CC(=O)O)c(C)n2C(=O)c1ccc(Cl)cc1 [Indomethacin] | about 0.30 | – | about 3.8 | – | – | – | – | – | –
CNc1cc2[nH]c(=O)n(-c3ccc(NC(=O)NS(=O)(=O)c4ccc(Cl)s4)cc3)c(=O)c2cc1F.[K] [Compound 1, [4-(6-fluoro-7-methylamino-2,4-dioxo-1,4-dihydro-2H-quinazolin-3-yl)-phenyl]-5-chloro-thiophen-2-yl-sulfonylurea potassium salt] | – | – | – | about 3.3 | moisture sensitive | < 100 | < 100 | about 2.5 | about −1.6
